From ChEMBL document CHEMBL3885861, “Open TG-GATES”

Species: Rattus norvegicus
Test: Open TG-GATES - Regimen: Single
Format: toxicity, organism-based, Sprague-Dawley
Set-up: regimen Single, gender Male, age 6 weeks
Conditions: in vivo, iv, route intravenous injection; for APTT / Bas / Eos / Fbg / Lym / MCHC / MCV / Mono / Neu / Plat / RBC / Ret / WBC / Ht / PT / Hb / MCH: tissue Blood; for KIDNEY_L / KIDNEY_R / KIDNEY_TOTAL: tissue Kidney; for LIVER: tissue Liver
[1] = 0 mg/kg, 3 h, dose level Control
[2] = 0 mg/kg, 3 h, tissue Plasma, dose level Control
[3] = 0 mg/kg, 6 h, dose level Control
[4] = 0 mg/kg, 6 h, tissue Plasma, dose level Control
[5] = 0 mg/kg, 9 h, dose level Control
[6] = 0 mg/kg, 9 h, tissue Plasma, dose level Control
[7] = 0 mg/kg, 24 h, dose level Control
[8] = 0 mg/kg, 24 h, tissue Plasma, dose level Control
[9] = 10 mg/kg, 3 h, tissue Plasma, dose level Low
[10] = 10 mg/kg, 6 h, tissue Plasma, dose level Low
[11] = 10 mg/kg, 9 h, tissue Plasma, dose level Low
[12] = 10 mg/kg, 24 h, tissue Plasma, dose level Low
[13] = 30 mg/kg, 3 h, dose level Middle

## GENTAMICIN
[1]
  TERMINAL_BW: 212.9 g
  APTT: 22 s
  Bas: 0%
  Eos: 0.8%
  Fbg: 293.2 mg/dL
  Lym: 79.6%
  MCHC: 33.9%
  MCV: 61.4 fL
  Mono: 2.8%
  Neu: 16%
  Plat: 119.4 x10_4/uL
  RBC: 631.2 x10_4/ul
  Ret: 6.4%
  WBC: 123.3 x10_2/uL
  KIDNEY_L: 0.9 g
  KIDNEY_R: 0.9 g
  KIDNEY_TOTAL: 1.9 g
  LIVER: 9.3 g
[2]
  ALP: 1296.6 IU/L
  ALT: 39.2 IU/L
  AST: 70.6 IU/L
  CRE: 0.2 mg/dL
  DBIL: 0 mg/dL
  GLC: 187.4 mg/dL
  IP: 7.4 mg/dL
  K: 4.4 meq/L
  LDH: 165.6 IU/L
  PL: 121.4 mg/dL
  RALB: 2.9 g/dL
  TBIL: 0.022 mg/dL
  TC: 63.6 mg/dL
  TG: 71 mg/dL
  TP: 5.3 g/dL
  gamma-GTP: 1.2 IU/L
[3]
  TERMINAL_BW: 209.6 g
  APTT: 23.6 s
  Bas: 0%
  Eos: 0.6%
  Fbg: 270.6 mg/dL
  Ht: 39.7%
  MCHC: 33.6%
  Mono: 2.6%
  PT: 16.4 s
  Plat: 119.5 x10_4/uL
  RBC: 629 x10_4/ul
  Ret: 7%
  WBC: 123.2 x10_2/uL
  KIDNEY_L: 0.9 g
  KIDNEY_R: 0.9 g
  KIDNEY_TOTAL: 1.8 g
  LIVER: 8.7 g
[4]
  ALP: 1253 IU/L
  ALT: 36.6 IU/L
  AST: 70.2 IU/L
  BUN: 11.2 mg/dL
  CRE: 0.2 mg/dL
  DBIL: 0 mg/dL
  IP: 8.3 mg/dL
  K: 4.4 meq/L
  LDH: 199.6 IU/L
  RALB: 2.9 g/dL
  TBIL: 0.018 mg/dL
  TC: 74 mg/dL
  TG: 75 mg/dL
  TP: 5.3 g/dL
  gamma-GTP: 1.2 IU/L
[5]
  APTT: 22.8 s
  Bas: 0%
  Eos: 1%
  Fbg: 313.6 mg/dL
  Hb: 12.9 g/dL
  Ht: 38.5%
  Lym: 82%
  MCHC: 33.5%
  MCV: 61.2 fL
  Mono: 2.6%
  PT: 16 s
  Plat: 124.4 x10_4/uL
  RBC: 628 x10_4/ul
  Ret: 6.9%
  WBC: 82.5 x10_2/uL
  KIDNEY_L: 0.9 g
  KIDNEY_R: 0.9 g
  KIDNEY_TOTAL: 1.8 g
  LIVER: 8.3 g
[6]
  ALP: 1527.6 IU/L
  ALT: 36.4 IU/L
  AST: 67.4 IU/L
  CRE: 0.2 mg/dL
  DBIL: 0 mg/dL
  GLC: 199.2 mg/dL
  IP: 9.5 mg/dL
  K: 4.1 meq/L
  LDH: 131.6 IU/L
  PL: 126.2 mg/dL
  RALB: 2.9 g/dL
  TBIL: 0.022 mg/dL
  TG: 38.2 mg/dL
  TP: 5.4 g/dL
  gamma-GTP: 1.2 IU/L
[7]
  TERMINAL_BW: 228.2 g
  APTT: 23.4 s
  Bas: 0%
  Eos: 1%
  Fbg: 293.6 mg/dL
  Ht: 38.2%
  MCHC: 34.3%
  MCV: 61.9 fL
  Mono: 2.6%
  Neu: 16%
  Plat: 125.4 x10_4/uL
  RBC: 618.6 x10_4/ul
  Ret: 5.8%
  WBC: 109.8 x10_2/uL
  KIDNEY_L: 1 g
  KIDNEY_R: 1 g
  KIDNEY_TOTAL: 2 g
[8]
  ALP: 1416.8 IU/L
  AST: 71.6 IU/L
  BUN: 15 mg/dL
  CRE: 0.2 mg/dL
  DBIL: 0 mg/dL
  IP: 6.9 mg/dL
  K: 4.4 meq/L
  LDH: 156.8 IU/L
  Na: 140.4 meq/L
  PL: 138.2 mg/dL
  RALB: 3 g/dL
  TBIL: 0.012 mg/dL
  TC: 68.4 mg/dL
  TG: 114.4 mg/dL
  TP: 5.4 g/dL
  gamma-GTP: 1.4 IU/L
10 mg/kg, 3 h, dose level Low
  TERMINAL_BW: 211.7 g
  APTT: 22.2 s
  Bas: 0%
  Eos: 0.2%
  Fbg: 301.8 mg/dL
  Hb: 13 g/dL
  Ht: 38.1%
  Lym: 78.8%
  MCH: 21.8 pg
  MCHC: 34.1%
  MCV: 64 fL
  Mono: 3%
  Neu: 17%
  PT: 16.2 s
  Plat: 121.8 x10_4/uL
  RBC: 595.2 x10_4/ul
  Ret: 7.2%
  WBC: 114 x10_2/uL
  KIDNEY_L: 0.9 g
  KIDNEY_R: 1 g
  KIDNEY_TOTAL: 1.9 g
  LIVER: 9.7 g
[9]
  ALP: 1674.8 IU/L
  ALT: 40.6 IU/L
  AST: 72.8 IU/L
  CRE: 0.2 mg/dL
  DBIL: 0.002 mg/dL
  GLC: 181.2 mg/dL
  IP: 7.8 mg/dL
  K: 4.2 meq/L
  LDH: 188 IU/L
  PL: 131.8 mg/dL
  RALB: 2.9 g/dL
  TBIL: 0.018 mg/dL
  TC: 66.6 mg/dL
  TG: 91.4 mg/dL
  TP: 5.3 g/dL
  gamma-GTP: 1.4 IU/L
10 mg/kg, 6 h, dose level Low
  TERMINAL_BW: 207.8 g
  APTT: 23.6 s
  Bas: 0%
  Eos: 0.8%
  Fbg: 282.6 mg/dL
  Ht: 39.5%
  Lym: 83%
  MCH: 21 pg
  Mono: 2.8%
  PT: 15.9 s
  Plat: 131.7 x10_4/uL
  RBC: 634.2 x10_4/ul
  Ret: 6.8%
  WBC: 102.7 x10_2/uL
  KIDNEY_L: 0.9 g
  KIDNEY_R: 0.9 g
  KIDNEY_TOTAL: 1.8 g
  LIVER: 8.7 g
[10]
  ALP: 1173 IU/L
  ALT: 36.4 IU/L
  AST: 68.8 IU/L
  CRE: 0.2 mg/dL
  DBIL: 0.002 mg/dL
  GLC: 175 mg/dL
  IP: 9.1 mg/dL
  K: 4.3 meq/L
  LDH: 216.2 IU/L
  PL: 139.6 mg/dL
  RALB: 3 g/dL
  TBIL: 0.022 mg/dL
  TC: 77.6 mg/dL
  TG: 74.8 mg/dL
  TP: 5.4 g/dL
  gamma-GTP: 1.6 IU/L
10 mg/kg, 9 h, dose level Low
  TERMINAL_BW: 208.7 g
  APTT: 23.8 s
  Bas: 0%
  Eos: 0.8%
  Fbg: 317.6 mg/dL
  Ht: 39.5%
  Lym: 80.6%
  MCHC: 33.4%
  Mono: 3.2%
  PT: 16.2 s
  Plat: 125.8 x10_4/uL
  RBC: 642.4 x10_4/ul
  Ret: 6.1%
  WBC: 90.1 x10_2/uL
  KIDNEY_L: 1 g
  KIDNEY_R: 1 g
  KIDNEY_TOTAL: 1.9 g
  LIVER: 8.2 g
[11]
  ALP: 1357 IU/L
  AST: 66.4 IU/L
  BUN: 11 mg/dL
  CRE: 0.1 mg/dL
  DBIL: 0.004 mg/dL
  GLC: 180.6 mg/dL
  IP: 8.9 mg/dL
  K: 4.2 meq/L
  LDH: 120.2 IU/L
  PL: 128 mg/dL
  RALB: 3 g/dL
  TBIL: 0.026 mg/dL
  TC: 69 mg/dL
  TG: 56 mg/dL
  TP: 5.4 g/dL
  gamma-GTP: 1 IU/L
10 mg/kg, 24 h, dose level Low
  TERMINAL_BW: 226 g
  APTT: 23.6 s
  Bas: 0%
  Eos: 0.8%
  Fbg: 300.6 mg/dL
  Ht: 38.7%
  Lym: 80.4%
  MCHC: 34%
  MCV: 61.6 fL
  Mono: 3.2%
  Plat: 126.1 x10_4/uL
  RBC: 628.8 x10_4/ul
  Ret: 6.2%
  WBC: 119.3 x10_2/uL
  KIDNEY_L: 1 g
  KIDNEY_R: 1 g
  KIDNEY_TOTAL: 1.9 g
  LIVER: 10.2 g
[12]
  ALP: 1490.2 IU/L
  ALT: 37.8 IU/L
  AST: 68.2 IU/L
  BUN: 16.6 mg/dL
  CRE: 0.2 mg/dL
  DBIL: 0 mg/dL
  IP: 6.4 mg/dL
  K: 4.5 meq/L
  LDH: 171.6 IU/L
  PL: 139.2 mg/dL
  RALB: 2.9 g/dL
  TBIL: 0.01 mg/dL
  TC: 69.4 mg/dL
  TG: 100 mg/dL
  TP: 5.4 g/dL
  gamma-GTP: 1.2 IU/L
[13]
  TERMINAL_BW: 214 g
  APTT: 23.2 s
  Bas: 0%
  Eos: 1%
  Fbg: 287.4 mg/dL
  Ht: 39.3%
  Lym: 79%
  MCHC: 34%
